Source: PMC13252604, “First Generation Proteolysis Targeting Chimeras (PROTACs) for the Treatment of Progeria” (Advanced Science, 2026)

Columns and labels:
[1] = Parallel artificial membrane permeability assay (PAMPA); assay type: in vitro ADME; details: read-out: P, permeability
Procedure: Pharmacokinetic properties, including solubility and membrane permeability, are critical in drug discovery but can pose challenges in PROTAC development […] The calculated logarithm of the partition coefficient between n‐octanol and water (clogP), determined using ACDLabs Percepta Software, indicated an acceptable lipophilicity for PROTAC 2 (clogP = 3.94), aligning with Lipinski's “rule of 5” (clogP<5). […] Compound permeability was assessed using the parallel artificial membrane permeability assay (PAMPA), which measures the ability of compounds to diffuse through a lipid‐infused artificial membrane. […] The cellular uptake of compound 2 was further confirmed by fluorescence microscopy, leveraging the intrinsic fluorescence of pomalidomide‐bearing derivatives (Figure S4).

[2] = tested on: phosphorylated histone 2AX (pH2AX); assay: pH2AX immunoblot in mouse progeroid cells; assay type: cell-based; details: Lmna^G609G/G609G fibroblasts, 5 µM, relative to GAPDH
Procedure: Confocal fluorescence microscopy images are representative of 2 independent experiments. […] Representative cropped immunoblots are shown. […] MW, molecular weight (in kDa) markers. (C) PROTAC 2 decreases senescence‐associated β‐galactosidase (SA‐βgal) activity, interleukin (IL) 1α and p16 senescent markers. Lmna^G609G/G609G (G609G) or Lmna^+/+ (WT) fibroblasts were incubated with vehicle or compound 2 (5 µM). […] Data were analysed using one‐way ANOVA followed by Dunnett's post–hoc test. ^*, p < 0.05; ^**, p < 0.01, ^***, p < 0.001, ^****, p < 0.0001 vs G609G cells. […]
compound exposure. […] Samples were analysed by electrophoresis in polyacrylamide gels (All Kd SDS-PAGE, BioRad) and the proteins transferred to nitrocellulose membranes (GE Healthcare, Amersham). […]
GAPDH (Cell Signaling, 2118S, 1:5000) and anti-actin (Santa Cruz Biotechnology, sc-376248, 1:500) as antibodies for loading control. […] The bands were quantified by densitometry using the […]
Quantification of different proteins intensity was performed using ImageJ (NIH) except for nuclear rim progerin intensity with Cell Profiler (Broad Institute). […]
SA β-galactosidase activity was determined by the FDG method. […]

SMILES: CC1(C)Oc2cc3oc(=O)ccc3cc2C[C@@H]1OC(=O)CCCCCNc1cccc2c1C(=O)N(C1CCC(=O)NC1=O)C2=O (some centres unmarked) [compound 2]
- Papp [1]: 67 nm/s
- levels of phosphorylated histone 2AX (pH2AX) [2]: reduces the levels of phosphorylated histone 2AX
